Measured values from paper PMC5681660, “Reduced hepatitis B and D viral entry using clinically applied drugs as novel inhibitors of the bile acid transporter NTCP” (Scientific Reports, 2017).
Where a name gives a salt, the structure may show the parent alone. Read-outs that look alike come from different tables or passages of the source.

Legend:
human NTCP [1] = biological target: T1, human NTCP (Homo sapiens, UniProt Q14973); assay: Screening taurocholate uptake assay (96-well, [14C]taurocholate, 10 µM drug)
T1 sequence (Q14973 1-349): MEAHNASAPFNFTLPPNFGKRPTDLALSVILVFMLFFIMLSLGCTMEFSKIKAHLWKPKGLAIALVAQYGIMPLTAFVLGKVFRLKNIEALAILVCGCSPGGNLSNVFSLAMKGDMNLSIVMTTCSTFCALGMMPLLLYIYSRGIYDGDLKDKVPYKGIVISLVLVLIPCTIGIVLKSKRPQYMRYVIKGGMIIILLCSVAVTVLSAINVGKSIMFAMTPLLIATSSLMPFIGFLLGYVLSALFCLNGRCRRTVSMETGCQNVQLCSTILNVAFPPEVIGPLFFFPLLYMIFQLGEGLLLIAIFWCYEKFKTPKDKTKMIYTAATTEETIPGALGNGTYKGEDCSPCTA

human NTCP [2] = biological target: T1, human NTCP; assay: Screening fluorescent competitive Myrcludex B-FITC binding assay (96-well, 10 µM drug)
[3] = Prestwick library screen, 10 µM drug, B-score of taurocholate uptake
[4] = combined ranking from functional and binding assay B-scores
[5] = Prestwick library screen, 10 µM drug, B-score of Myrcludex B-FITC binding
[6] = Prestwick library screen, taurocholate uptake, 10 µM drug
[7] = ranking score beside the functional and binding assay B-scores of the screen
[8] = Prestwick library screen, Myrcludex B-FITC binding, 10 µM drug
[9] = combined ranking from functional and binding screening assays
[10] = screen, 10 µM drug, taurocholate uptake
[11] = screen, 10 µM drug, Myrcludex B-FITC binding

Compound	B-score functional assay (human NTCP [1]; [3])	Ranking score (human NTCP [1]; [4])	B-score binding assay (human NTCP [2]; [5])	B-score functional assay (human NTCP [1]; [6])	Ranking score (human NTCP [1]; [7])	B-score binding assay (human NTCP [2]; [8])	Ranking score (human NTCP [1]; [9])	B-score functional assay (human NTCP [1]; [10])	B-score binding assay (human NTCP [2]; [11])	other results
Cl.O=C(O)/C=C/c1ccc(Cn2ccnc2)cc1 [Ozagrel hydrochloride]	1.392	1118.41	1.332	–	–	–	–	–	–	–
CCCCN(CCCC)CCCOC(=O)c1ccc(N)cc1 [Butacaine]	–	–	–	-0.185	672.37	0.529	–	–	–	–
COC(=O)[C@H](c1ccccc1Cl)N1CCc2sccc2C1 [Clopidogrel]	–	–	–	–	–	–	419.199	0.915	-1.412	–
C#C[C@]1(O)CC[C@H]2[C@@H]3CCC4=CCCC[C@@H]4[C@H]3CC[C@@]21C [Lynestrenol]	2.662	897.58	0.007	–	–	–	–	–	–	–
C[C@]12CCC(=O)C=C1C=C[C@@H]1[C@@H]2CC[C@@]2(C)[C@H]1CC[C@@]21CCC(=O)O1 [Canrenone]	–	–	–	–	–	–	379.419	-0.551	-0.43	–
CO[C@@H]1[C@@H](OC(N)=O)[C@@H](O)[C@H](Oc2ccc3c([O-])c(NC(=O)c4ccc(O)c(CC=C(C)C)c4)c(=O)oc3c2C)OC1(C)C.[Na+] [Novobiocin sodium salt]	1.027	942.881	0.269	–	–	–	–	–	–	–
CC(C)C[C@H]1C(=O)N2CCC[C@H]2[C@]2(O)O[C@](NC(=O)[C@@H]3C=C4c5cccc6[nH]c(Br)c(c56)C[C@H]4N(C)C3)(C(C)C)C(=O)N12.CS(=O)(=O)O [Bromocryptine mesylate]	–	–	–	–	–	–	349.571	-0.957	-0.252	–
Cc1nccn1CC1CCc2c(c3ccccc3n2C)C1=O.Cl (stereo not drawn) [Ondansetron Hydrochloride]	–	–	–	0.043	666.933	0	–	–	–	–
O=C(NCC(O)CO)c1c(I)c(C(=O)NCC(O)CO)c(I)c(N(CCO)C(=O)CO)c1I (stereo not drawn) [Ioversol]	–	–	–	–	–	–	–	–	–	B-score functional assay (human NTCP [1]): 1.843; Ranking score (human NTCP [1]): 1044.38; B-score binding assay (human NTCP [2]): 0.541
COc1ccc(CC2c3cc(OC)c(OC)cc3CC[N+]2(C)CCC(=O)OCCCCCOC(=O)CC[N+]2(C)CCc3cc(OC)c(OC)cc3C2Cc2ccc(OC)c(OC)c2)cc1OC (stereo not drawn) [Atracurium besylate]	2.141	978.724	0.189	–	–	–	–	–	–	–
NCCc1cc[nH]n1 [Betazole hydrochloride]	–	–	–	0.019	836.299	1.024	–	–	–	–
CC1=C(C(=O)O)N2C(=O)[C@@H](NC(=O)[C@H](N)c3ccc(O)cc3)[C@H]2SC1 [Cefadroxil]	–	–	–	–	–	–	439.805	-0.032	-0.675	–
COc1ccc(-c2cc(=S)ss2)cc1 [Anethole-trithione]	–	–	–	0.437	719.937	-0.048	–	–	–	–
CC[C@@]1(O)C(=O)OCc2c1cc1n(c2=O)Cc2cc3c(CN(C)C)c(O)ccc3nc2-1 [Topotecan]	–	–	–	0.858	819.148	0.007	–	–	–	–
CCN(CC)C(=O)/C(C#N)=C/c1cc(O)c(O)c([N+](=O)[O-])c1 [Entacapone]	–	–	–	–	–	–	366.148	-0.441	-0.647	–
N=C(N)NC(=O)c1nc(Cl)c(N)nc1N [Amiloride hydrochloride dihydrate]	–	–	–	–	–	–	420.464	-1.628	1.12	–
Cc1scc2c1N(C(=O)CN1CCN(C)CC1)c1ccccc1NC2=O [Telenzepine dihydrochloride]	0.592	1037.8	1.535	–	–	–	–	–	–	–
N=C(N)NCC1COC2(CCCCC2)O1.N=C(N)NCC1COC2(CCCCC2)O1.O=S(=O)(O)O (stereo not drawn) [Guanadrel sulfate]	–	–	–	–	–	–	326.821	-2.033	0.27	–

Compound	B-score functional assay (human NTCP [1]; [3])	Ranking score (human NTCP [1]; [4])	B-score binding assay (human NTCP [2]; [5])	B-score functional assay (human NTCP [1]; [6])	Ranking score (human NTCP [1]; [7])	B-score binding assay (human NTCP [2]; [8])	Ranking score (human NTCP [1]; [9])	B-score functional assay (human NTCP [1]; [10])	B-score binding assay (human NTCP [2]; [11])	other results
Spiramycin	0.83	1002.4	0.801	–	–	–	–	–	–	–
CO/N=C(\C(=O)N[C@@H]1C(=O)N2C(C(=O)O)=C(COC(C)=O)CS[C@H]12)c1csc(N)n1 [Cefotaxime sodium salt]	–	–	–	–	–	–	382.157	3.35	-1.895	–
COc1ccc2cc([C@@H](C)C(=O)[O-])ccc2c1.[Na+] [(R) -Naproxen sodium salt]	–	–	–	–	–	–	–	–	–	B-score functional assay (human NTCP [1]): -0.341; Ranking score (human NTCP [1]): 667.638; B-score binding assay (human NTCP [2]): 0.921
Cc1ccc(-c2ncc(Cl)cc2-c2ccc(S(C)(=O)=O)cc2)cn1 [Etoricoxib]	–	–	–	–	–	–	393.756	-0.663	-0.254	–
NC(=O)c1ncn([C@@H]2O[C@H](CO)[C@@H](O)[C@H]2O)n1 [Ribavirin]	–	–	–	0.312	712.803	-0.029	–	–	–	–
Cc1cc(-c2ccccc2)nnc1NCCN1CCOCC1 [Minaprine dihydrochloride]	–	–	–	1.278	814.509	-0.039	–	–	–	–
C=CCSCC1Nc2cc(Cl)c(S(N)(=O)=O)cc2S(=O)(=O)N1 (stereo not drawn) [Althiazide]	0.092	866.45	0.861	–	–	–	–	–	–	–
CCOC(=O)[C@H](CCc1ccccc1)N[C@@H](C)C(=O)N1[C@H](C(=O)O)C[C@@H]2CCC[C@@H]21 [Ramipril]	0.852	1101.41	1.901	–	–	–	–	–	–	–
O=C(CCCCC(=O)Nc1c(I)cc(I)c(C(=O)O)c1I)Nc1c(I)cc(I)c(C(=O)O)c1I [Iodipamide]	–	–	–	2.519	831.882	-0.069	–	–	–	–
CC(=O)CC(c1ccc([N+](=O)[O-])cc1)c1c(O)c2ccccc2oc1=O (stereo not drawn) [Acenocoumarol]	0.873	950.096	0.383	–	–	–	–	–	–	–
CC(=O)O[C@H]1C(=O)[C@@]2(C)[C@H]([C@H](OC(=O)c3ccccc3)[C@]3(O)C[C@H](OC(=O)[C@H](O)[C@@H](NC(=O)c4ccccc4)c4ccccc4)C(C)=C1C3(C)C)[C@]1(OC(C)=O)CO[C@@H]1C[C@@H]2O [Paclitaxel]	–	–	–	-0.069	752.811	0.829	–	–	–	–
CCCN[C@H]1CCc2nc(N)sc2C1 [Pramipexole dihydrochloride]	–	–	–	–	–	–	303.528	-1.48	-0.164	–
CC(C)NC[C@@H](O)COc1ccc(CC(N)=O)cc1 [(R)-(+)-Atenolol]	–	–	–	0.006	655.981	0.009	–	–	–	–
CCn1cc(C(=O)O)c(=O)c2cc(F)c(N3CCNCC3)cc21 [Norfloxacin]	–	–	–	-0.135	788.093	2.084	–	–	–	–
CCCC(CCC)C(=O)O [Valproic acid]	0.92	1093.47	1.515	–	–	–	–	–	–	–
CC(N/C(=N\C#N)Nc1ccncc1)C(C)(C)C (stereo not drawn) [Pinacidil]	–	–	–	–	–	–	332.839	-0.832	-0.477	–
CC(=O)OCC1=C(C(=O)O)N2C(=O)[C@@H](N)[C@H]2SC1 [Cephalosporanic acid, 7-amino]	0.531	845.501	0.15	–	–	–	–	–	–	–
Nc1ccc(S(=O)(=O)Nc2ccnn2-c2ccccc2)cc1 [Sulfaphenazole]	0.483	867.854	0.287	–	–	–	–	–	–	–
